# According to patent US5565478A (The United States of America as represented by the …, priority 1994, dated 1996):
# Read-outs that look alike come from different tables or passages of the source.
# Legend:
# [1] = tested on: phosphorylation events which are associated with receptor activation; conditions: cited from earlier work
# [2] = tested on: A2780-CP70 cells; test: Colony assay, compound 1 in combination with carboplatin; format: cell-based, human
# Method: (§1) A2780-CP70 are a selected subline of A2780 which are stably resistant to cisplatin in the absence of continuous exposure. These cells were obtained from Robert Ozols, MD at the Fox Chase Cancer Center, Philadelphia, Pa., USA. These cells were cultured as described above.
# (§2) Cells were incubated overnight in serum-containing medium, then washed once and treated with compound 1 (5 μM). After 24 hr, the cells were washed once with PBS and then treated with carboplatin (1 to ~200 μM) for an additional 24 hr. The resulting cells were washed once with PBS, treated with serum-containing media and incubated for 5 days. The cells were then fixed and stained with methylene blue in 40% methanol and the colonies were counted. […] Data are presented as a percent of control (DMSO vehicle) growth.
# [3] = tested on: A2780 cells; test: as above; format: cell-based, human
# Method: (§3) A2780 human ovarian cancer cells are available from the ATCC. The cells were cultured in RPMI 1640 with 10% FCS under standard conditions. See the ATCC catalog. The culture media contained penicillin and streptomycin and in some instances, insulin.
# as §2
# [4] = tested on: A2780-CP70 cells (cisplatin-resistant); test: Colony growth inhibition, 24 hr exposure; format: cell-based; conditions: Homo sapiens, colonies counted after 5 days
# Method: as §1
# (§4) Cells (500) were plated in 6-well plates and allowed to grow overnight. […] Controls were conducted by adding DMSO vehicle in complete media. […] After 5 days of incubation, the cells were washed once with PBS and then stained with methylene blue in 40% methanol for 20 min. The wells were rinsed gently with water and allowed to air dry. Colonies were counted by hand.
# [5] = tested on: nonvoltage-gated and voltage-gated calcium channels; conditions: cited from earlier work
# [6] = tested on: A2780 cells; test: Colony assay, compound 1 followed by paclitaxel; format: cell-based, human; conditions: compound 1 (0, 1 and 5 μM) 24 hr, then compound 3 (paclitaxel, 0 to 0.01 μM) 24 hr
# Method: as §3
# (§5) Cells were incubated overnight in serum-containing medium, then washed once and treated with compound 1 (0, 1 and 5 μM). […] The resulting cells were washed once with PBS, treated with serum-containing media and incubated for 5 days. The cells were then fixed and stained with methylene blue in 40% methanol and the colonies were counted. FIGS. 2 and 3 show the results for the A2780 and A2780-CP70 cells, respectively. Data are presented as a percent of control (DMSO vehicle) growth.
# [7] = tested on: A2780-CP70 cells; test: Monolayer assay, compound 1 followed by paclitaxel; format: cell-based, human; conditions: compound 1 (5 μM) 24 hr, then paclitaxel (0 to 0.007 μM) 24 hr
# Method: as §1
# (§6) For each of the cell types, 50,000 cells were plated per well in 24-well tissue culture plates. One mL of medium was added to each well and the cells were incubated overnight at 37° C. The media was carefully aspirated away and media (1 mL) containing compound 1 (5 μM) or DMSO vehicle control was added to each well. After incubating the cells for 24 hr at 37° C., the media from each well was carefully aspirated away and each well was washed twice with serum-free media. […] After the incubation, the media was aspirated away and each well was washed twice with serum-free media. Serum-containing media was then added to each well and all plates were incubated for 4 days at 37° C. At the end of 4 days, the media was aspirated off and wells were fixed and stained with crystal violet in methanol. The wells were air dried and eluted with sodium citrate and ethanol. The optical density (OD) was determined for each of the well eluates at 540 nm. The percent relative growth was calculated by dividing the mean OD of identically treated wells by the OD of the control and multiplying by 100.
# [8] = tested on: A2780 human ovarian cancer cells; test: Colony growth inhibition, 24 hr exposure; format: cell-based; conditions: colonies counted after 5 days
# Method: as §3, §4
# [9] = Toxicity of compound 1 in patients
# [10] = tested on: A2780 cells; test: Monolayer assay, compound 1 followed by paclitaxel; format: cell-based, human; conditions: compound 1 (5 μM) 24 hr, then paclitaxel (0 to 0.007 μM) 24 hr
# Method: as §3, §6
# [11] = humans, 100 mg/m^2/d; cited from earlier work
# [12] = tested on: A2780-CP70 cells; test: Colony assay, paclitaxel followed by compound 1; format: cell-based, human; conditions: paclitaxel (0.003 μM) 24 hr, then compound 1 (0 to 10 μM); cisplatin-resistant A2780-CP70
# Method: as §1
# The cells were again washed with PBS and treated with compound 1 (0 to 10 μM) for 24 hr, washed again with PBS and incubated for 5 days in drug-free media. The resulting cells were fixed, stained and the colonies were counted. Data are presented in FIGS. 4 and 5 as a percentage of control growth (DMSO treatment only).
# [13] = tested on: MDA 231 human breast cancer cells; test: Monolayer assay, compound 1 followed by paclitaxel; format: cell-based; conditions: compound 1 (5 μM) 24 hr, then paclitaxel (0 to 0.007 μM) 24 hr; MDA 231 monolayer
# Method: MDA-231 hormone-resistant human breast cancer cells from ATCC were cultured in DMEM with 10% FCS and penicillin/streptomycin, under standard conditions.
# as §6
# [14] = Stability of compound 1 in PEG-400 solution; format: physicochemical; conditions: temperatures of up to 50° C.
# Method: Compound 1 (NSC 609974) is available from the National Cancer Institute as a white powder. Preferably, it is dispensed as a 100 mg/mL solution in PEG-400. Compound 1 in PEG-400 solution is stable for at least 3 months at temperatures of up to 50° C. It is administered as a measured liquid dose daily for 8 days or more. It is recommended that patients take nothing by mouth for 3 hours prior to and 1 hour after taking the compound 1.
# [15] = clinical; conditions: human, plasma, 100 mg/m^2
# [16] = tested on: production of arachidonic acid; conditions: cited from earlier work
# [17] = 100 mg/m^2/day
# [18] = at least; fixed dose 100 mg/m^2/d, by the 8th day of administration; read-out: plasma levels in humans; cited from earlier work
# [19] = tested on: A2780-CP70 cells; test: Colony assay, compound 1 followed by paclitaxel; format: cell-based, human; conditions: compound 1 (0, 1 and 5 μM) 24 hr, then compound 3 (paclitaxel, 0 to 0.01 μM) 24 hr
# Method: as §1, §5
# [20] = both in vitro and in vivo; cited from earlier work
# [21] = tested on: voltage-gated L-type calcium channels in vascular smooth muscle cells; conditions: vascular smooth muscle cells under patch clamp; cited from earlier work
# [22] = tested on: receptor-mediated calcium entry (RMCE) in platelets, endothelial cells and neutrophils; conditions: cited from earlier work
# [23] = cited from earlier work
# [24] = tested on: microtubule; conditions: cited from earlier work
# [25] = tested on: human tumors; conditions: clinical trials; cited from earlier work
# [26] = tested on: calcium levels in cells; conditions: cited from earlier work
# [27] = in vitro; cited from earlier work
# [28] = tested on: paclitaxel-induced neutropenia; conditions: cited from earlier work
# [29] = carboplatin first, then compound 1
# [30] = compound 1 (5 μM) 24 hr, then carboplatin (1 to ~200 μM) 24 hr
molecule,measurement,setting,value
"NC(=O)c1nnn(Cc2cc(Cl)c(C(=O)c3ccc(Cl)cc3)c(Cl)c2)c1N [Compound 1, 5-amino-1-(4-(4-chlorobenzoyl)-3,5-dichlorobenzyl)-1,2,3-triazole-4-carboxamide]",effect on phosphorylation events,[1],inhibits phosphorylation events
same,"combination effect on growth, reversed sequence",[2]; [29],sub-additive effect
same,combination effect on growth,[2]; [30],sub-additive effect
same,"combination effect on growth, reversed sequence",[3]; [29],sub-additive effect
same,combination effect on growth,[3]; [30],sub-additive effect
same,IC50,[4],9.5 µM
same,inhibition of calcium uptake,[5],inhibitor of calcium uptake
same,combination effect on growth,[6],supra-additive effect
same,combination effect on percent relative growth,[7],supra-additive effect
same,IC50,[8],3 µM
same,common low-grade toxicities,"[9]; human, in vivo",nausea and emesis
same,uncommon toxicities,"[9]; human, in vivo","mood changes (low-grade), peripheral neuropathy (mild to moderate) and neutropenia"
same,toxicity at dosing level,"[9]; patients, 100 mg/m^2/day",no significant toxicity
same,combination effect on percent relative growth,[10],supra-additive effect
same,toxicity at fixed dose,[11],no significant toxicity
same,combination effect on growth,[12],additive effect
same,combination effect on percent relative growth,[13],supra-additive effect
same,stability in PEG-400 solution,[14],at least 3 months
same,concentration at 192 h,[15],1 to 5 µM
same,effect on production of arachidonic acid,[16],alter production of arachidonic acid
same,"usual plasma levels, plateau",[17],3 to 4 µg/mL
same,concentration,"[17]; read-out: usual plasma levels, plateau (molar)",5 to 10 µM
same,concentration,[18],1 to 5 µM
same,combination effect on growth,[19],supra-additive effect
same,single agent activity,[20],"antiproliferative, anti-invasive, and anti-metastatic properties"
COc1ccc(CCCOC(Cn2ccnc2)c2ccc(OC)cc2)cc1 (stereo not drawn) [Compound 2],block of voltage-gated L-type calcium channels,[21],blocks voltage-gated L-type calcium channels
same,inhibition of RMCE,[22],inhibits RMCE
"CC(=O)O[C@H]1C(=O)[C@@]2(C)[C@H]([C@H](OC(=O)c3ccccc3)[C@]3(O)C[C@H](OC(=O)[C@H](O)[C@@H](NC(=O)c4ccccc4)c4ccccc4)C(C)=C1C3(C)C)[C@]1(OC(C)=O)CO[C@@H]1C[C@@H]2O [Compound 3, Paclitaxel]",dose at which dose limiting toxicity of peripheral neuropathy has been seen,[23]; paclitaxel infusion over 3-24 hours every 21 days,above 300 mg/m^2
same,toxicities of paclitaxel,[23]; patients,"nausea, emesis, diarrhea, neutropenia, thrombocytopenia, anemia, hair loss, myalgia, cardiac conduction abnormalities, hypersensitivity reactions, peripheral and autonomic neuropathy, mucositis"
same,effect on microtubule polymerization,[24],promotion of microtubule polymerization
same,efficacy in human tumors,[25],demonstrated efficacy in several human tumors
Clc1ccc(COC(Cn2ccnc2)c2ccc(Cl)cc2Cl)cc1 (stereo not drawn) [econazole],effect on calcium levels in cells,[26],effect calcium levels in cells
OC(Cn1cncn1)(Cn1cncn1)c1ccc(F)cc1F [fluconazole],effect on calcium levels in cells,[26],effect calcium levels in cells
CCC(C)n1ncn(-c2ccc(N3CCN(c4ccc(OCC5COC(Cn6cncn6)(c6ccc(Cl)cc6Cl)O5)cc4)CC3)cc2)c1=O (stereo not drawn) [itraconazole],effect on calcium levels in cells,[26],effect calcium levels in cells
CC(=O)N1CCN(c2ccc(OCC3COC(Cn4ccnc4)(c4ccc(Cl)cc4Cl)O3)cc2)CC1 (stereo not drawn) [ketoconazole],effect on activity of paclitaxel,[27],augment the activity of paclitaxel
same,effect on calcium levels in cells,[26],effect calcium levels in cells
Clc1ccc(COC(Cn2ccnc2)c2ccc(Cl)cc2Cl)c(Cl)c1 (stereo not drawn) [miconazole],effect on calcium levels in cells,[26],effect calcium levels in cells
"G-CSF: cytokine which blunts paclitaxel-induced neutropenia; recombinant cytokine from Amgen (protein, UniProt P09919 31-207, looked up, filgrastim, recombinant cytokine from Amgen) Granulocyte …: TPLGPASSLPQSFLLKCLEQVRKIQGDGAALQEKLVSECATYKLCHPEELVLLGHSLGIPWAPLSSCPSQALQLAGCLSQLHSGLFLYQGLLQALEGISPELGPTLDTLQLDVADFATTIWQQMEELGMAPALQPTQGAMPAFASAFQRRAGGVLVASHLQSFLEVSYRVLRHLAQP",maintenance of paclitaxel dose,"[28]; G-CSF escalation up to 30 μg/kg/d, paclitaxel alone or with compound 1",associated with maintenance of the dose of paclitaxel
same,effect on paclitaxel-induced neutropenia,[28]; in vivo,blunts paclitaxel-induced neutropenia
